Results published in the NIST ThermoML archive (doi:10.1016/j.fluid.2007.01.038).
± gives the expanded uncertainty stated by the source.

Assays:
[1] = refractive index (Na D-line) (dimensionless); settings: 298.15 K; 101.33 kPa; Liquid; Standard Abbe refractometry
[2] = Liquid; for mass density: 298.15 K, 101.33 kPa; for Normal boiling temperature: Ebulliometric method (Recirculating still)

refractive index [1] | mass density [2] [kg/m3] | Normal boiling temperature [2] [°C] | Structure (SMILES)
1.3592 ± 0.00073 | 785.22 ± 0.5 | 78.29 ± 0.1 | CCO [ethanol]
1.3917 ± 0.00072 | 757.57 ± 0.26 | 122.50 ± 0.1 | CCCCOC(C)(C)C [butane, 1-(1,1-dimethylethoxy)-]
1.3264 ± 0.0007 | 786.63 ± 0.5 | 64.4 ± 0.1 | CO [methanol]
